Experimental data reported in PubChem BioAssay (NCI).
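Test compounds were applied to cells in 96-well plates for 48 hours at 5 doses. TGI denotes the concentration required for complete inhibition of growth.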

Columns and labels:
Test in all cases: growth of human tumour cells (NCI), 48 h
OVCAR-3 ovarian = system: OVCAR-3 ovarian
KM12 colon = system: KM12 colon
K-562 leukemia = system: K-562 leukemia
HCC-2998 colon = system: HCC-2998 colon
U251 CNS = system: U251 CNS
HS 578T breast = system: HS 578T breast
MOLT-4 leukemia = system: MOLT-4 leukemia
A549 NSCLC = system: A549 NSCLC
TK-10 renal = system: TK-10 renal
SF-295 CNS = system: SF-295 CNS
T-47D breast = system: T-47D breast
EKVX NSCLC = system: EKVX NSCLC
SK-MEL-2 melanoma = system: SK-MEL-2 melanoma
MDA-MB-435 = system: MDA-MB-435
HOP-62 NSCLC = system: HOP-62 NSCLC
SN12C renal = system: SN12C renal
M14 melanoma = system: M14 melanoma
SK-MEL-5 melanoma = system: SK-MEL-5 melanoma
CAKI-1 renal = system: CAKI-1 renal
COLO 205 colon = system: COLO 205 colon
786-0 renal = system: 786-0 renal
OVCAR-8 ovarian = system: OVCAR-8 ovarian
SK-OV-3 ovarian = system: SK-OV-3 ovarian
DU-145 prostate = system: DU-145 prostate
RPMI-8226 leukemia = system: RPMI-8226 leukemia
NCI-H23 lung = system: NCI-H23 lung
MDA-MB-231 breast = system: MDA-MB-231 breast
HCT-15 colon = system: HCT-15 colon
UO-31 renal = system: UO-31 renal
NCI-H226 lung = system: NCI-H226 lung
ACHN renal = system: ACHN renal
SK-MEL-28 melanoma = system: SK-MEL-28 melanoma
NCI/ADR-RES ovarian = system: NCI/ADR-RES ovarian
NCI-H460 lung = system: NCI-H460 lung
MCF7 breast = system: MCF7 breast
SNB-19 CNS = system: SNB-19 CNS
MALME-3M melanoma = system: MALME-3M melanoma
UACC-62 melanoma = system: UACC-62 melanoma
UACC-257 melanoma = system: UACC-257 melanoma
MDA-N = system: MDA-N
SW-620 colon = system: SW-620 colon
BT-549 breast = system: BT-549 breast
HT29 colon = system: HT29 colon
SNB-75 CNS = system: SNB-75 CNS
OVCAR-4 ovarian = system: OVCAR-4 ovarian
RXF 393 renal = system: RXF 393 renal
IGROV1 ovarian = system: IGROV1 ovarian
HCT-116 colon = system: HCT-116 colon
HOP-92 NSCLC = system: HOP-92 NSCLC
A498 renal = system: A498 renal
LOX IMVI melanoma = system: LOX IMVI melanoma
SF-268 CNS = system: SF-268 CNS
CCRF-CEM leukemia = system: CCRF-CEM leukemia
HL-60(TB) leukemia = system: HL-60(TB) leukemia
OVCAR-5 ovarian = system: OVCAR-5 ovarian
PC-3 prostate = system: PC-3 prostate

O=C1/C(=C/c2ccc(O)c(CN3CCCCC3)c2)CCC/C1=C\c1ccc(O)c(CN2CCCCC2)c1
TGI (OVCAR-3 ovarian): > 100 µM | TGI (KM12 colon): 14.8 µM | TGI (K-562 leukemia): 42.3 µM | TGI (HCC-2998 colon): 20.6 µM | TGI (U251 CNS): 20.5 µM | TGI (HS 578T breast): 83.8 µM | TGI (MOLT-4 leukemia): 27 µM | TGI (A549 NSCLC): 53.5 µM | TGI (TK-10 renal): 21.1 µM | TGI (SF-295 CNS): 16.3 µM | TGI (T-47D breast): 35.8 µM | TGI (EKVX NSCLC): 25.2 µM | TGI (SK-MEL-2 melanoma): 50.6 µM | TGI (MDA-MB-435): 18.2 µM | TGI (HOP-62 NSCLC): 26.3 µM | TGI (SN12C renal): 59 µM | TGI (M14 melanoma): 44.5 µM | TGI (SK-MEL-5 melanoma): 27.1 µM | TGI (CAKI-1 renal): 34.5 µM | TGI (COLO 205 colon): 10.4 µM | TGI (786-0 renal): 17.5 µM | TGI (OVCAR-8 ovarian): 29.8 µM | TGI (SK-OV-3 ovarian): 22.4 µM | TGI (DU-145 prostate): 17.6 µM | TGI (RPMI-8226 leukemia): 35.8 µM | TGI (NCI-H23 lung): 20.2 µM | TGI (MDA-MB-231 breast): 17.4 µM | TGI (HCT-15 colon): 29.5 µM | TGI (UO-31 renal): 22.5 µM | TGI (NCI-H226 lung): 48.2 µM | TGI (ACHN renal): 19.5 µM | TGI (SK-MEL-28 melanoma): 31.3 µM | TGI (NCI/ADR-RES ovarian): 9.82 µM | TGI (NCI-H460 lung): 13.6 µM | TGI (MCF7 breast): 15.5 µM | TGI (SNB-19 CNS): 17.7 µM | TGI (MALME-3M melanoma): 28.7 µM | TGI (UACC-62 melanoma): 38.2 µM | TGI (UACC-257 melanoma): 23.9 µM | TGI (MDA-N): 20.6 µM | TGI (SW-620 colon): 29.1 µM | TGI (BT-549 breast): 31.3 µM | TGI (HT29 colon): 3.7 µM | TGI (SNB-75 CNS): 12.4 µM | TGI (OVCAR-4 ovarian): 33.2 µM | TGI (RXF 393 renal): 15.5 µM | TGI (IGROV1 ovarian): 29.4 µM | TGI (HCT-116 colon): 14.7 µM | TGI (HOP-92 NSCLC): 12.3 µM | TGI (A498 renal): 28.9 µM | TGI (LOX IMVI melanoma): 25.1 µM | TGI (SF-268 CNS): 20.8 µM | TGI (CCRF-CEM leukemia): 17.7 µM | TGI (HL-60(TB) leukemia): 11.5 µM | TGI (OVCAR-5 ovarian): > 100 µM | TGI (PC-3 prostate): 44.6 µM
